We go through seven molecules from PubChem BioAssay (NCI).

Test systems include NCI-H460 lung; LOX IMVI melanoma; MOLT-4 leukemia; SN12C renal; TK-10 renal; HCT-116 colon; ACHN renal; RXF 393 renal; HOP-62 NSCLC; NCI-H226 lung.
What all share (test): NCI tumour cell line growth inhibition, 48 h

Each structure is given as a SMILES string.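 The compound was tested at five concentrations on cells cultured in 96-well plates, with a 48-hour exposure period. The concentration for 50% growth inhibition is given as GI50. TGI marks complete inhibition of growth.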

On to `COC(=O)C1C(C(=O)O)C2(c3ccccc3)C(=O)C1(c1ccccc1)C(c1ccccc1)=C2c1ccccc1` (stereo not given), for which the GI50 is 13.6 µM with NCI-H460 lung; 27.8 µM with LOX IMVI melanoma; 14.5 µM with MOLT-4 leukemia; 18 µM with SN12C renal; 39.2 µM in the test with TK-10 renal; 19.6 µM with HCT-116 colon. Also, the GI50 in the test with ACHN renal was 25.8 µM; in the test on RXF 393 renal, 16.8 µM; in the test on HOP-62 NSCLC it was 21.2 µM; with NCI-H226 lung, 24.8 µM. The TGI with NCI-H460 lung was found to be 29.1 µM; with LOX IMVI melanoma it was 89.7 µM; with MOLT-4 leukemia, 36 µM; in the test with SN12C renal it was 38.9 µM; in the test with TK-10 renal, 99 µM; in the test on HCT-116 colon, 35.2 µM. Moreover, the TGI with ACHN renal amounted to 88.1 µM; in the test on RXF 393 renal it was 36.3 µM; with HOP-62 NSCLC, 41.4 µM; in the test on NCI-H226 lung, 66 µM.

As for `Cn1[nH]cc2ccc3nc4ccccc4c(=O)c3c21`, the TGI in the test on NCI-H460 lung was greater than 89.5 µM; with LOX IMVI melanoma it was 46.5 µM; in the test on MOLT-4 leukemia it was greater than 95.1 µM; in the test on SN12C renal, greater than 100 µM; with TK-10 renal, 72.2 µM; in the test with HCT-116 colon, greater than 100 µM. For the same molecule, the TGI in the test with ACHN renal was 98.6 µM; with RXF 393 renal it was 44.4 µM; with HOP-62 NSCLC, greater than 83.9 µM; in the test on NCI-H226 lung, 45.5 µM.

Consider `CCCCC(=O)N(c1ccc(Nc2c3ccccc3nc3cc([N+](=O)[O-])ccc23)cc1)S(C)(=O)=O`, for which the GI50 in the test with NCI-H460 lung was 0.381 µM; in the test on LOX IMVI melanoma, 3.05 µM; in the test on MOLT-4 leukemia, 3.53 µM; in the test with SN12C renal, 4.86 µM; in the test on TK-10 renal, 7.61 µM; in the test with HCT-116 colon, 3.78 µM. Further, the GI50 was 3.85 µM with ACHN renal, 8.44 µM in the test with RXF 393 renal, 4.52 µM with HOP-62 NSCLC and 8 µM with NCI-H226 lung. In addition, the TGI was 12.8 µM in the test with NCI-H460 lung; 17.4 µM in the test on LOX IMVI melanoma; 28.4 µM with MOLT-4 leukemia; greater than 100 µM with SN12C renal; greater than 84 µM with TK-10 renal; 19.8 µM in the test on HCT-116 colon. The TGI was greater than 88.7 µM in the test on ACHN renal, 27.8 µM in the test on RXF 393 renal, 52.5 µM in the test on HOP-62 NSCLC and 32.9 µM in the test with NCI-H226 lung.

As to `O=C(/C=C/c1ccccc1)c1cccc2ccccc12`, the GI50 was 1.84 µM with NCI-H460 lung; 1.6 µM with LOX IMVI melanoma; 1.43 µM in the test on MOLT-4 leukemia; 4.29 µM in the test with SN12C renal; 4.04 µM in the test on TK-10 renal; 1.96 µM with HCT-116 colon. Moreover, the GI50 was 3.66 µM with ACHN renal, 2.38 µM with RXF 393 renal, 4.25 µM with HOP-62 NSCLC and 1.99 µM with NCI-H226 lung. The TGI worked out at 3.86 µM in the test on NCI-H460 lung; 4.69 µM with LOX IMVI melanoma; 5.68 µM in the test with MOLT-4 leukemia; 15.4 µM in the test on SN12C renal; 14.2 µM with TK-10 renal; 4.1 µM with HCT-116 colon. In addition, the TGI with ACHN renal was determined as 14.3 µM; in the test with RXF 393 renal it was 8.04 µM; in the test with HOP-62 NSCLC, 13.5 µM; with NCI-H226 lung, 6.32 µM.

With `Cc1cccc(NC(=O)C(=O)C(C2OC(=O)c3ccccc32)[N+](=O)[O-])c1C` (stereo not given), the TGI in the test with NCI-H460 lung was 18.7 µM; in the test with LOX IMVI melanoma it was 6.26 µM; in the test on MOLT-4 leukemia, greater than 100 µM; with SN12C renal, 18.9 µM; with TK-10 renal, 32 µM; with HCT-116 colon it was 21.3 µM. In addition, the TGI in the test with ACHN renal was determined as 22.9 µM; with RXF 393 renal it was 20.7 µM; in the test with HOP-62 NSCLC, 31.1 µM; in the test with NCI-H226 lung, 26.4 µM.

For the molecule `COc1cccc2c1C(=O)c1c(O)c3c(c(O)c1C2=O)C[C@@](O)(/C(CO)=N/NC(=O)CCCCCN1C(=O)C=CC1=O)C[C@@H]3O[C@H]1C[C@H](N)[C@H](O)[C@H](C)O1`, the GI50 in the test on NCI-H460 lung was 0.0889 µM; in the test with LOX IMVI melanoma, 0.301 µM; in the test with MOLT-4 leukemia it was 0.392 µM; in the test with SN12C renal it was 0.446 µM; with TK-10 renal, 1.68 µM; with HCT-116 colon it was 0.41 µM. The GI50 in the test with ACHN renal was 0.717 µM; with RXF 393 renal, 0.984 µM; in the test on HOP-62 NSCLC, 0.674 µM; in the test on NCI-H226 lung, 0.56 µM. In addition, the TGI in the test with NCI-H460 lung is 1.95 µM; in the test with LOX IMVI melanoma, 3.95 µM; with MOLT-4 leukemia, 28.3 µM; in the test with SN12C renal, greater than 100 µM; with TK-10 renal, greater than 27.4 µM; with HCT-116 colon, greater than 100 µM. Further, the TGI with ACHN renal was greater than 51.5 µM; with RXF 393 renal, 3.85 µM; with HOP-62 NSCLC, 10.5 µM; in the test on NCI-H226 lung, 3.37 µM.

Regarding `O=C(/C=C/c1ccc(Cl)c(Cl)c1)c1ccccc1Cl`, the TGI with NCI-H460 lung came to 27.2 µM; in the test with LOX IMVI melanoma it was 27.7 µM; with MOLT-4 leukemia it was 98.4 µM; with SN12C renal it was 30.8 µM; in the test on TK-10 renal, 47.9 µM; in the test on HCT-116 colon, 9.95 µM. Besides, the TGI in the test with ACHN renal worked out at 28.6 µM; with RXF 393 renal, 31.6 µM; in the test with HOP-62 NSCLC, 34.2 µM; with NCI-H226 lung, 31.6 µM.
